Assays:
Type in all cases: in vivo
[1] = test system: Agriotes lineatus; assay: Barley seed treatment, wireworm (Agriotes lineatus) corrected mortality and plant height (Example 3); details: for Plant height in cm / % Increase plant height in comparison to infested control (6DAI) observed: 6DAI; for Plant height in cm: barley, infested control 9.3, not infested control 14.9; for % Corrected mortality (20 DAI) observed: 20 days after infestation, barley seed treatment
Procedure: The products FS400 and NOVODOR 3% FC were diluted with the addition of water to have the dose of active ingredient for 30 seeds plusan overage of 10%. These extra 10% were needed to compensate for losses of active ingredient during the seed treatment process. 30 seeds of barley were placed in a spheric glass beaker, and the application solution was added. The beaker was swung to mix the seeds with the solution. After drying two seeds were sown per pot. 10 replicates per treatment were prepared. 5 days after sowing the pots were infested with 10 wireworms (Agriotes lineatus, approx. 20 mm length). 20 days after infestation (20DAI), the corrected mortality of the wireworms was assessed based on the control treatment. 6 days after infestation (6DAI) the plant height was measured.

[2] = test system: Diabrotica balteata; assay: Corn seed treatment, Diabrotica balteata larvae mortality and plant damage (Example 2); details: 6 days after infestation, alone or combined
Procedure: The products FS400 and NOVODOR 3% FC were diluted with the addition of water to have the dose of active ingredient for 30 seeds plus an overage of 10%. These extra 10% were needed to compensate for losses of active ingredient during the seed treatment process. 30 seeds of corn were placed in a spheric glass beaker, and the application solution was added. The beaker was swung to mix the seeds with the solution. After drying, four seeds were sown per pot. 5 replicates per treatment were prepared. 14 days after sowing the pots were infested with 5 second instar larvae of Diabrotica balteata. 6 days after infestation (6DAI) the mortality of larvae and the damage on the plants was assessed.

[3] = test system: Spodoptera littoralis; assay: Foliar spray on soybean plants, Spodoptera littoralis larvae mortality (Example 1); details: isocycloseram 0.4 ppm (0.2 g AI/ha), Bt1 45 ppm (22.5 g AI/ha), alone or combined, second instar larvae; for % mortality (3DAA) Observed Results: 3 days after application; for % mortality (5DAA) Observed Results: 5 days after application
Procedure: The products VIRANTRA SC400 and COSTAR WG 18 are diluted with the addition of water to obtain the concentrations of active ingredients gathered in Table 1 and Table 2, and were applied on soybean plants (planted in pots; ˜8 plants per pot, 5 pots per treatment), in using a turn table application machine (500 l/ha). After drying 10 soybean plants were cut and placed in a petri dish (diameter: 14.5 cm) containing 3 wet filter papers (4 ml water); 3 replicates per concentration were done. Plants were infested with 10 Spodoptera littoralis larvae (second instar of larvae) and petri dish was covered with a round cotton tissue and closed with a plastic lid. Three and five days after application mortality was assessed.

[4] = isocycloseram 0.25 μg/seed (6 g/100 kg seed), alone or + Bt2 5 μg/seed
[5] = isocycloseram 1.25 μg/seed (24 g/100 kg seed), alone or + Bt2 5 μg/seed
[6] = isocycloseram 0.01 mg/seed (3 g/100 kg seeds), Bt2 0.03 mg/seed (10 g/100 kg seeds)
[7] = isocycloseram 0.03 mg/seed (10 g/100 kg seeds), Bt2 0.1 mg/seed (30 g/100 kg seeds)
[8] = Bt2 alone 5 μg/seed (120 g/100 kg seed)

| Compound | Plant height in cm [1, 4] [cm] | Plant height in cm [1, 5] [cm] | % Increase plant height in comparison to infested control (6DAI) observed [1, 4] [%] | % Increase plant height in comparison to infested control (6DAI) observed [1, 5] [%] | % Corrected mortality (20 DAI) observed ([1]; isocycloseram 0.25 μg/seed (6 g/100 kg seed), alone or + Bt2 5 μg/seed (120 g/100 kg seed)) [%] | % Corrected mortality (20 DAI) observed ([1]; isocycloseram 1.25 μg/seed (24 g/100 kg seed), alone or + Bt2 5 μg/seed (120 g/100 kg seed)) [%] | % Mortality (6DAI) observed [2, 6] [%] | % Plant damage reduction (6DAI) observed [2, 6] [%] | % Mortality (6DAI) observed [2, 7] [%] | % Plant damage reduction (6DAI) observed [2, 7] [%] | % mortality (3DAA) Observed Results [3] [%] | % mortality (5DAA) Observed Results [3] [%] | % Increase plant height in comparison to infested control (6DAI) observed [1, 8] [%] | Plant height in cm [1, 8] [cm] | % Corrected mortality (20 DAI) observed [1, 8] [%] |
| --- | --- | --- | --- | --- | --- | --- | --- | --- | --- | --- | --- | --- | --- | --- | --- |
| CCN1OCC(NC(=O)c2ccc(C3=NOC(c4cc(Cl)c(F)c(Cl)c4)(C(F)(F)F)C3)cc2C)C1=O (stereo not drawn) [isocycloseram] | 10.2 | 10.6 | 10 | 14 | 17 | 25 | 33 | 33 | 58 | 50 | 0 | 7 | – | – | – |
| Bacillus thuringiensis var. kurstaki strain SA-12 [Bt1] | – | – | – | – | – | – | – | – | – | – | 20 | 30 | – | – | – |
| Bacillus thuringiensis var. tenebrionis strain NB-176 [Bt2] | – | – | – | – | – | – | 0 | −6 | 0 | 11 | – | – | 0 | 9 | 0 |
